As a reminder, the IC50 is the point on the concentration scale where inhibition reaches its midpoint. High values mean lower potency, low ones higher potency.

This experiment has as its target T1, Fructose-1,6-bisphosphatase 1 (Homo sapiens, UniProt P09467).
T1 sequence (P09467 whole entry): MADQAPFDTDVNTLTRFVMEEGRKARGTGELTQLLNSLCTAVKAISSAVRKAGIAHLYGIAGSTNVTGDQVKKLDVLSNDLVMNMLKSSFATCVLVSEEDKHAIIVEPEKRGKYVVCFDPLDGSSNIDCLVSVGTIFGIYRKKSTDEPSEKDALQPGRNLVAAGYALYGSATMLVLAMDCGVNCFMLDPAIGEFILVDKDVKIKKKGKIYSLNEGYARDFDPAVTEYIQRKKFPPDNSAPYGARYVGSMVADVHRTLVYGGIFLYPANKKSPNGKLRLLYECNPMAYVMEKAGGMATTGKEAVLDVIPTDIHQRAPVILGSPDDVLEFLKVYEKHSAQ
In words: Inhibition of human liver FBPase.

As to `Nc1nc2c(s1)Cc1cccc(P(=O)(O)O)c1-2`, the IC50 amounted to 28.4 µM.
As to `Nc1nc2c(s1)CCCc1ccc(P(=O)(O)O)cc1-2`, it took 0.169 µM to reach half-maximal inhibition (IC50).
Under `Nc1nc2c(s1)CCc1cccc(OP(=O)(O)O)c1-2` stands 335 µM.
The compound `Nc1nc2c(s1)CCc1cccc(P(=O)(O)O)c1-2` gave an IC50 of 354 µM.
With `Nc1nc2c(s1)CCc1cc(P(=O)(O)O)ccc1-2`, it took 354 µM to reach half-maximal inhibition (IC50).
Under `Nc1nc2c(s1)Cc1ccc(OP(=O)(O)O)cc1-2` stands 307 µM; under `Nc1nc2c(s1)CCc1cc(OCP(=O)(O)O)ccc1-2`, 16.4 µM; under `Nc1nc2c(s1)CCc1cc(OP(=O)(O)O)ccc1-2`, 112 µM.
`Nc1nc2c(s1)Cc1ccc(OCP(=O)(O)O)cc1-2` returned an IC50 of 112 µM.
`Nc1nc2c(s1)CCCc1ccc(OP(=O)(O)O)cc1-2` came in with an IC50 of 0.022 µM.
In turn, `Nc1nc2c(s1)Cc1cc(P(=O)(O)O)ccc1-2` had an IC50 of 91.9 µM.
In turn, `Nc1nc2c(s1)CCc1ccc(OCP(=O)(O)O)cc1-2` registered an IC50 of 19.1 µM.
In turn, `Nc1nc2c(s1)Cc1cc(OP(=O)(O)O)ccc1-2` showed an IC50 of 146 µM.
The compound `Nc1nc2c(s1)Cc1cccc(OP(=O)(O)O)c1-2` came in with an IC50 of 0.07 µM.
Compound `Nc1nc2c(s1)Cc1cc(OCP(=O)(O)O)ccc1-2` gave an IC50 of 112 µM.
Under `Nc1nc2c(s1)Cc1ccc(P(=O)(O)O)cc1-2` stands 18.7 µM; under `Nc1nc2c(s1)CCCc1ccc(OCP(=O)(O)O)cc1-2`, 41.7 µM.
The compound `Nc1nc2c(s1)CCc1cccc(OCP(=O)(O)O)c1-2` showed an IC50 of 21.5 µM.
Compound `Nc1nc2c(s1)CCc1ccc(P(=O)(O)O)cc1-2` came in with an IC50 of 9.32 µM.
Under `Nc1nc2c(s1)CCc1ccc(CP(=O)(O)O)cc1-2` stands 0.84 µM.
Consider `Nc1nc2c(s1)CCc1ccc(C(F)(F)P(=O)(O)O)cc1-2`, for which half-maximal inhibition (IC50) was put at 0.047 µM.
